Assay results published in patent US20260317344A1, “EGFR INHIBITORS FOR TREATING DISEASE” (BLOSSOMHILL THERAPEUTICS, INC., priority 2023, published 2026).

Key:
[1] = target: T1, pEGFR, NCI-H1975 cells (L858R/T790M EGFR) (Homo sapiens, UniProt P00533, L858R/T790M); test: Cellular EGFR phosphorylation assay (LANCE Ultra TR-FRET) in NCI-H1975 cells; format: cell-based; conditions: 4 hours at 37° C., read-out: H1975 pEGFR IC50
T1 construct: pEGFR (Tyr1068) TR-FRET
Procedure: (§1) Cellular EGFR Phosphorylation Assays
(§2) EGFR phosphorylation assays were conducted in NSCLC cells with EGFR activation mutations. PC-9 cells (purchased from Aldrich-Sigma) carry a Glu746-Ala750 deletion (d746-750) mutation in exon 19 of the EGFR gene and NCI-H1975 cells (purchased from ATCC) carry both L858R activation mutation and T790M gatekeeper mutation in the EGFR gene. A431 cells (purchased from ATCC) with amplification of wildtype EGFR, derived from epidermoid carcinoma, were used to measure the activity against wildtype EGFR. All cells were seeded in 96-well plates. For PC-9 and NCI-H1975 cells, 50 thousand cells were seeded per well. For A431 cells, 30 thousand cells were seeded per well. The next day, cells were exposed to compound for 4 hours at 37° C. and 5% CO2. Compounds were diluted in DMSO and added to cells in a 9-dose, 3-fold dilution, titration curve using TECAN d300e liquid dispenser. For A431 cells, 40 ng/mL of EGF was added to the media for the final 10 minutes of incubation. EGFR phosphorylation was measured using phospho-EGFR (Try1068) LANCE Ultra TR-FRET Detection Kit (TRF4015M) from PerkinElmer according to manufacturer's instructions. In brief, cells were lysed with 40 μL of lysis buffer plus 1× Halt protease and phosphatase inhibitor cocktail (Thermo 78441) and by incubation at room temperature for 1 h on a microplate shaker (350 rpm). 15 μ L of cell lysate was transferred to 384-well white plate and 5 μL of Europium- and ULight-labeled antibodies diluted in 1× detection buffer was added to each well. After 4-6 hours of incubation at room temperature, plates were then read on a TECAN Sparks multimode microplate reader. Data was analyzed using GraphPad Prism 9 (GraphPad Software, San Diego, CA) to obtain IC50 values.

[2] = target: T2, pEGFR, PC-9 cells (d746-750 EGFR) (Homo sapiens, UniProt P00533, DEL746-750); test: Cellular EGFR phosphorylation assay (LANCE Ultra TR-FRET) in PC-9 cells; format: cell-based; conditions: 4 hours at 37° C., read-out: PC-9 pEGFR IC50
T2 construct: pEGFR (Tyr1068) TR-FRET
T2 sequence (P00533 with tags, fused parts or gaps DEL746-750): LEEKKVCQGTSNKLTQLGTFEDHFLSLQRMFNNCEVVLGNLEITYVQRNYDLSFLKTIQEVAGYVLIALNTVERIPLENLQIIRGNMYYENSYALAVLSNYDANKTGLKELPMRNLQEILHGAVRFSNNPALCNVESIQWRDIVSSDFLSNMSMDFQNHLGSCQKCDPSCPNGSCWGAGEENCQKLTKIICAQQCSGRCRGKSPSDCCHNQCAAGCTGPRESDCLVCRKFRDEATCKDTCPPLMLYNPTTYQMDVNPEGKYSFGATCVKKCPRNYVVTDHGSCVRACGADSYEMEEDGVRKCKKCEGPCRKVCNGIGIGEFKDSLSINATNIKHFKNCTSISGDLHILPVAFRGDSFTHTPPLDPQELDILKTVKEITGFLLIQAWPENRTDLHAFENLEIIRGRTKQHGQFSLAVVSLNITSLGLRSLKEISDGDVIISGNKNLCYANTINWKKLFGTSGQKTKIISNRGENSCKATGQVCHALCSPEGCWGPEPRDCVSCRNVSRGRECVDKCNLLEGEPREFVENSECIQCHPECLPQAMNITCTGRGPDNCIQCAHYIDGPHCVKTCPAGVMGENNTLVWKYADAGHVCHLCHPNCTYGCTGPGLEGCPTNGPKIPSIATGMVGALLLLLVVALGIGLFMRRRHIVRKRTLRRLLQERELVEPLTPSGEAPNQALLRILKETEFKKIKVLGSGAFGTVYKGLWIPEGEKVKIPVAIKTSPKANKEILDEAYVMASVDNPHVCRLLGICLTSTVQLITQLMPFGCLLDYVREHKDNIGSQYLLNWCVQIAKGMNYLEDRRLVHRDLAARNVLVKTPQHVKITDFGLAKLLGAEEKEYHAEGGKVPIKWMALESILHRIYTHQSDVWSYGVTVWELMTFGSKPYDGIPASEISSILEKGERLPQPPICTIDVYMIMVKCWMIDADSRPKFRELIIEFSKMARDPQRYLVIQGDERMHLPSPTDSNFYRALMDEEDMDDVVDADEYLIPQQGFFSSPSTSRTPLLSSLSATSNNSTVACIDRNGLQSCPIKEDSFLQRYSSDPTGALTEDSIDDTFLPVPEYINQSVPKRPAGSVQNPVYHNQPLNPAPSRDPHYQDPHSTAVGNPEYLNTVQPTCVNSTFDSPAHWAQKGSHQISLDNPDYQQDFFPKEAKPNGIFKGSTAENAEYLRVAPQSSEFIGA
Procedure: as §1, §2

EGFR (L858R/T790M/C797S) = EGFR (L858R/T790M/C797S) (Homo sapiens, UniProt P00533, C797S/L858R/T790M); test: HotSpot radiometric kinase assay, inhibition of EGFR L858R/T790M/C797S mutant; format: biochemical; conditions: 33P ATP, room temperature, 120 m
Procedure: (§3) Biochemical Assays for inhibition of wild-type and mutant EGFRs
(§4) Briefly, specific kinase/substrate pairs along with required cofactors were prepared in reaction buffer; 20 mM HEPES pH 7.5, 10 mM […], 1 mM EGTA, 0.02% Brij35, 0.02 mg/ml BSA, 0.1 mM Na3VO4, 2 mM DTT, 1% DMSO. Compounds were delivered into the reaction, followed ~20 minutes later by addition of a mixture of ATP (Sigma, St. Louis MO) and ^33P ATP (Perkin Elmer, Waltham MA) to a final concentration of […]. Reactions were carried out at room temperature for 120 m, followed by spotting of the reactions onto P81 ion exchange filter paper (Whatman Inc., Piscataway, NJ). Unbound phosphate was removed by extensive washing of filters in 0.75% phosphoric acid. […] IC50 values and curve fits were obtained using Prism (GraphPad Software).

NCI-H1975 cells = test: 5-Day CellTiter Glo (CTG) cell proliferation assay, NCI-H1975; format: cell-based; conditions: Homo sapiens; NCI-H1975 cells (L858R/T790M EGFR), 5-day CTG proliferation, 120 hours; read-out: H1975 IC50
Outline: (§5)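 Proliferation of EGFR-driven NSCLC cells was scored as CellTiter-Glo 2.0 luminescence after a 5-day (120 h) incubation with compounds in 9 doses. IC50 values came from the dose-response curves.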

HCC827 cells = test: 5-Day CellTiter Glo (CTG) cell proliferation assay, HCC827; format: cell-based; conditions: Homo sapiens; HCC827 cells (d746-750 EGFR), 5-day CTG proliferation, 120 hours; read-out: HCC827 IC50
Outline: as §5

PC-9 cells = test: 5-Day CellTiter Glo (CTG) cell proliferation assay, PC-9; format: cell-based; conditions: Homo sapiens; PC-9 cells (d746-750 EGFR), 5-day CTG proliferation, 120 hours; read-out: PC-9 IC50
Outline: as §5

[3] = target: T3, pEGFR, A431 cells (wildtype EGFR) (Homo sapiens, UniProt P00533); test: Cellular EGFR phosphorylation assay (LANCE Ultra TR-FRET) in A431 cells; format: cell-based; conditions: 4 hours at 37° C., 40 ng/mL EGF for the final 10 minutes, read-out: A431 pEGFR IC50
T3 construct: pEGFR (Tyr1068) TR-FRET
Procedure: as §1, §2

EGFR (D746-750) = EGFR (D746-750) (Homo sapiens, UniProt P00533, DEL746-750); test: HotSpot radiometric kinase assay, inhibition of EGFR 746-750 mutant; format: biochemical; conditions: 33P ATP, room temperature, 120 m
EGFR (D746-750), sequence (P00533 with tags, fused parts or gaps DEL746-750): as above
Procedure: as §3, §4

EGFR (D746-750/C797S) = EGFR (D746-750/C797S) (Homo sapiens, UniProt P00533, C797S/DEL746-750); test: HotSpot radiometric kinase assay, inhibition of EGFR 746-750/C797S mutant; format: biochemical; conditions: 33P ATP, room temperature, 120 m
EGFR (D746-750/C797S), sequence (P00533 with tags, fused parts or gaps DEL746-750/C797S): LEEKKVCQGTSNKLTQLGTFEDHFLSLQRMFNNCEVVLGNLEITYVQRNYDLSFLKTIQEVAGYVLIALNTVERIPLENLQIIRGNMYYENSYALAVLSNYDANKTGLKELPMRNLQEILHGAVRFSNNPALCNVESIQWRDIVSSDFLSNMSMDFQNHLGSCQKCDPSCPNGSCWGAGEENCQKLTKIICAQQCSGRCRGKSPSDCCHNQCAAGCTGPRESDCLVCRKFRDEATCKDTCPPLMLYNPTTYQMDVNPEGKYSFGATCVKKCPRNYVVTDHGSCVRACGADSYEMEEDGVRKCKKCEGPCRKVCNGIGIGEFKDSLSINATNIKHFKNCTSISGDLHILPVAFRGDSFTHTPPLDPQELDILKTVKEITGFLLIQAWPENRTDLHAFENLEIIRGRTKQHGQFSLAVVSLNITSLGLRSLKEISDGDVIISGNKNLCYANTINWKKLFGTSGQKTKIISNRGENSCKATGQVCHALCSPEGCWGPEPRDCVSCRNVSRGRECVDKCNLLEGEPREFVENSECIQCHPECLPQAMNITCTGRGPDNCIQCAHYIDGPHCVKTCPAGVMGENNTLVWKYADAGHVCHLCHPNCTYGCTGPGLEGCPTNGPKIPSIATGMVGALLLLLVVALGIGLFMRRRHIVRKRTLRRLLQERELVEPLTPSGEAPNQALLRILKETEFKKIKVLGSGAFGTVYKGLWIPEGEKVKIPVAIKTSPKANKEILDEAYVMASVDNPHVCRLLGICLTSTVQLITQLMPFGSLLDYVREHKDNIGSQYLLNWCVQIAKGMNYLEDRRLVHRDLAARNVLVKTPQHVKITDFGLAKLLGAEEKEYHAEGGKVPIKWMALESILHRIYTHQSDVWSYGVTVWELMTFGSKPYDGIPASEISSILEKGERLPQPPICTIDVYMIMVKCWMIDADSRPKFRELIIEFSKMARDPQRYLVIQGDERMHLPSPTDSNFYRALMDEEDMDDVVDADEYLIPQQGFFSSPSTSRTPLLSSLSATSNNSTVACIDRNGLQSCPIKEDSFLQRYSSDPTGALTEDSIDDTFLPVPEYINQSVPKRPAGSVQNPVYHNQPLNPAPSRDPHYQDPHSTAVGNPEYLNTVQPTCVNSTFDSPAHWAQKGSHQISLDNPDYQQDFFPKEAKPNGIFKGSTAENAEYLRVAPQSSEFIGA
Procedure: as §3, §4

EGFR (D770_N771insNPG) = EGFR (D770_N771insNPG) (Homo sapiens, UniProt P00533, INS770NPG); test: HotSpot radiometric kinase assay, inhibition of EGFR (D770_N771insNPG) mutant; format: biochemical; conditions: 33P ATP, room temperature, 120 m
EGFR (D770_N771insNPG), sequence (P00533 with tags, fused parts or gaps INS770NPG limits assumed): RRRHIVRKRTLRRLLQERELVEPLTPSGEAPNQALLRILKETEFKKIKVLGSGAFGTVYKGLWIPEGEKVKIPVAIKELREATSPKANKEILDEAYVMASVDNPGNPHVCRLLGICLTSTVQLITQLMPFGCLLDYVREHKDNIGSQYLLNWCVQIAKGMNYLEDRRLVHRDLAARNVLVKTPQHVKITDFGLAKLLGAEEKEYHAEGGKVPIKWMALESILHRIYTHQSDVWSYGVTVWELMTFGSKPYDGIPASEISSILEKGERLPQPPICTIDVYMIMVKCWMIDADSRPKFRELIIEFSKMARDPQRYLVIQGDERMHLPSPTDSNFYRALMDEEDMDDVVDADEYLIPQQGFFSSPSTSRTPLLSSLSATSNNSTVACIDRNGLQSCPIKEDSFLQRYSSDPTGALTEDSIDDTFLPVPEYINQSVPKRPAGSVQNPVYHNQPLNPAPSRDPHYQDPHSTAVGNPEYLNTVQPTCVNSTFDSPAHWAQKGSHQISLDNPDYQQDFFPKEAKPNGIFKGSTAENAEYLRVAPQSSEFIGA
Procedure: as §3, §4

IC50 [1] | IC50 [2] | IC50 (EGFR (L858R/T790M/C797S)) | IC50 (NCI-H1975 cells) | IC50 (HCC827 cells) | IC50 (PC-9 cells) | IC50 [3] | IC50 (EGFR (D746-750)) | IC50 (EGFR (D746-750/C797S)) | IC50 (EGFR (D770_N771insNPG)) | SMILES
1.54 nM | 1.13 nM | 0.74 nM | 16.9 nM | 0.44 nM | 1.08 nM | 13.2 nM | 0.42 nM | 1.58 nM | 0.42 nM | CCc1nn(CCO)c2c1/C=C/c1n[nH]c3cnc(cc13)-c1c(C)nn(C)c1O[C@@H](C)CN(CC)C2 [Ex. 62, 2-[(10S,17E)-12,16-diethyl-6,8,10-trimethyl-2,8,10,11,12,13-hexahydro-14H-5,3-(azenometheno)tripyrazolo[3,4-f:3′,4′-j:4″,3″-n][1,4]oxazacyclopentadecin-14-yl]ethan-1-ol]
3.31 nM | 2.38 nM | 0.6 nM | 9.62 nM | 2.7 nM | 13.8 nM | 57.3 nM | 0.36 nM | 1.09 nM | 0.39 nM | Cc1nn(C)c2c1-c1cc3c(n[nH]c3c(C)n1)/C=C/c1c(OCC#N)nn(CCO)c1CN(C)C[C@H](C)O2 [Ex. 63, {[(10S,17E)-14-(2-hydroxyethyl)-6,8,10,12,20-pentamethyl-2,10,11,12,13,14-hexahydro-8H-5,3-(azenometheno)tripyrazolo[3,4-f:3,4′-j:4″,3″-n][1,4]oxazacyclopentadecin-16-yl]oxy}acetonitrile]
2.79 nM | 2.74 nM | 0.82 nM | 26.6 nM | 1.02 nM | 5.63 nM | 29.6 nM | 0.41 nM | 1.2 nM | 0.42 nM | Cc1nn(C)c2c1-c1cc3c(n[nH]c3cn1)/C=C/c1c(OCC#N)nn([C@@H](C)CO)c1CN1CCC[C@@H]1CO2 [Ex. 64, {[(8aR,19E)-3-[(2S)-1-hydroxypropan-2-yl]-11,13-dimethyl-3,4,7,8,8a,9,11,17-octahydro-6H-14,16-(azenometheno)tripyrazolo[3,4-f:3′,4′-j:4″,3″-n]pyrrolo[2,1-c][1,4]oxazacyclopentadecin-1-yl]oxy}acetonitrile]
1.56 nM | 1.11 nM | 1.58 nM | 5.36 nM | 0.63 nM | 1.6 nM | 15.8 nM | 0.61 nM | 1.61 nM | 0.99 nM | CCOc1nn([C@@H](C)CO)c2c1/C=C/c1n[nH]c3cnc(cc13)-c1c(C)nn(C)c1OC[C@H]1CCCN1C2 [Ex. 65, (2S)-2-[(8aR,19E)-1-ethoxy-11,13-dimethyl-7,8,8a,9,11,17-hexahydro-6H-14,16-(azenometheno)tripyrazolo[3,4-f:3′,4′-j:4″,3″-n]pyrrolo[2,1-c][1,4]oxazacyclopentadecin-3(4H)-yl]propan-1-ol]
5.54 nM | 2.98 nM | 1.08 nM | 17.6 nM | 1.13 nM | 1.81 nM | 16 nM | 0.56 nM | 1.65 nM | 0.69 nM | CCN1Cc2c(c(OCC#N)nn2[C@@H](C)CO)/C=C/c2n[nH]c3cnc(cc23)-c2c(C)nn(C)c2O[C@@H](C)C1 [Ex. 67, {[(10S,17E)-12-ethyl-14-[(2S)-1-hydroxypropan-2-yl]-6,8,10-trimethyl-2,10,11,12,13,14-hexahydro-8H-5,3-(azenometheno)tripyrazolo[3,4-f:3′,4′-j:4″,3″-n][1,4]oxazacyclopentadecin-16-yl]oxy}acetonitrile]

Second part, the compound before the results:

SMILES | IC50 [1] | IC50 [2] | IC50 (EGFR (L858R/T790M/C797S)) | IC50 (NCI-H1975 cells) | IC50 (HCC827 cells) | IC50 (PC-9 cells) | IC50 [3] | IC50 (EGFR (D746-750)) | IC50 (EGFR (D746-750/C797S)) | IC50 (EGFR (D770_N771insNPG))
CCN1Cc2c(c(OCC#N)nn2[C@@H](C)CO)/C=C/c2n[nH]c3cnc(cc23)-c2c(C)nn(C)c2O[C@H](C)C1 [Ex. 58, {[(10R,17E)-12-ethyl-14-[(2S)-1-hydroxypropan-2-yl]-6,8,10-trimethyl-2,10,11,12,13,14-hexahydro-8H-5,3-(azenometheno)tripyrazolo[3,4-f:3′,4′-j:4″,3″-n][1,4]oxazacyclopentadecin-16-yl]oxy}acetonitrile] | 2.34 nM | 1.11 nM | 1.01 nM | 14.7 nM | 0.75 nM | 2.44 nM | 21.5 nM | 0.55 nM | 1.38 nM | 0.72 nM
CCc1nn(CCO)c2c1/C=C/c1n[nH]c3cnc(cc13)-c1c(C)nn(C)c1O[C@@H](C)CN(C)C2 [Ex. 60] | 2.49 nM | 2.39 nM | 0.86 nM | 57.5 nM | 1.77 nM | 5.05 nM | 29 nM | 0.54 nM | 1.72 nM | 0.78 nM
CCc1nn([C@@H](C)CO)c2c1/C=C/c1n[nH]c3cnc(cc13)-c1c(C)nn(C)c1O[C@@H](C)CN(C)C2 [Ex. 61, (2S)-2-[(10S,17E)-16-ethyl-6,8,10,12-tetramethyl-2,8,10,11,12,13-hexahydro-14H-5,3-(azenometheno)tripyrazolo[3,4-f:3′,4′-j:4″,3″-n][1,4]oxazacyclopentadecin-14-yl]propan-1-ol] | 2.05 nM | 1.68 nM | 0.91 nM | 74.7 nM | 0.66 nM | 3.55 nM | 21 nM | 0.43 nM | 1.05 nM | 0.7 nM
